Data: patent US12128024B2 (GEORGETOWN UNIVERSITY, priority 2004, dated 2024)

Assays:
[1] = cited from earlier work
[2] = system: Namalwa, EBV positive Burkitt's lymphoma B cell line; experiment: Trypan blue viability of EBV positive lymphoid cell line (FIG. 4); type: cell-based; conditions: human gammaherpesvirus 4, B-cell; 6.25 μM DHA; Namalwa cells; read-out: cells killed (viability as % of controls, trypan blue)
Procedure: (§1) One cell line, referred to as MJ, is an HTLV-I positive cutneous T cell leukemia line and the other cell line, referred to Namalwa, is an EBV positive Burkitt's lymphoma B cell line.
(§2) The cell lines were maintained in culture, using RPMI 1640 medium, supplemented with 10% fetal bovine serum and antibiotics. For the assay, 100,000 cells, in volumes of 100 μl medium, were placed in micro-titer wells; an additional 100 μl medium, containing 0 μM, 6.25 μM, 12.5 μM, 25 μM, 50 μM, 100 μM and 200 μM concentrations of DHA, were added. The negative controls contained medium only. The DHA stock (20 mM) was used to dilute the drug in concentrations ranging from 0 to 200 μM. All experiments were performed in triplicate. After incubation at 37° C. and 5% CO2, for various time periods, the cells were counted in a hemocytometer in the presence of trypan blue. Viability was expressed, as % of controls (no drug).

HeLa cells = experiment: Viability dose-response of HeLa cells (FIG. 3); type: cell-based; conditions: 25 μM DHA
[3] = system: cervical cancer cell lines (HeLa, SiHa, Caski); experiment: Viability dose-response of cervical cancer cell lines (FIG. 3); type: cell-based; conditions: 72 h, 25 μM DHA, within 3 days of treatment, read-out: loss of viability
[4] = system: MJ, HTLV-I positive cutneous T cell leukemia line; experiment: Trypan blue viability of HTLV-I positive lymphoid cell line (FIG. 5); type: cell-based; conditions: Primate T-lymphotropic virus 1, T-cell; 6.25 μM DHA; MJ cells; read-out: cells killed (viability as % of controls, trypan blue)
Procedure: as §1, §2

[5] = system: cervical cancer cell lines; experiment: Morphology of cervical cancer cell lines after artemisinin treatment (phase contrast microscopy, FIG. 2); type: cell-based; conditions: 25 μM artemisinin, 3 days, vs control solvent
[6] = system: normal cervical cells (HCX); experiment: Morphology of normal cervical cells after artemisinin treatment (phase contrast microscopy, FIG. 2); type: cell-based; conditions: 25 μM artemisinin, 3 days, vs control solvent

## CO[C@H]1O[C@@H]2O[C@@]3(C)CC[C@H]4[C@H](C)CC[C@@H]([C@H]1C)[C@@]24OO3 [artemether]
[1]
  solubility in water compared with artemisinin: higher solubility in water

## C[C@H]1[C@@H](O)O[C@@H]2O[C@@]3(C)CC[C@H]4[C@H](C)CC[C@@H]1[C@@]24OO3 [DHA, dihydroartemisinin]
[2]
  cytotoxicity at 6.25 µM: ~60%
HeLa cells
  cell death: 95%
[3]
  cytotoxicity at 25 µM: 80%
[1]
  solubility in water compared with artemisinin: higher solubility in water
[4]
  cytotoxicity at 6.25 µM: ~60%

## C[C@@H]1CC[C@H]2[C@@H](C)C(=O)O[C@@H]3O[C@@]4(C)CC[C@@H]1[C@]32OO4 [artemisinin]
[5]
  change in morphology of cervical cancer cells: rounded up and detached from the tissue culture plate
[6]
  change in morphology of normal cervical cells (HCX): little change in morphology

## CCCOC(=O)OC1O[C@@H]2O[C@@]3(C)CC[C@H]4[C@H](C)CC[C@@H]([C@H]1C)[C@@]24OO3 (some centres unmarked) [propylcarbonate dihydroartemisinin]
[1]
  solubility in water compared with artemisinin: higher solubility in water

## C[C@H]1[C@@H](OCc2ccc(C(=O)O)cc2)O[C@@H]2O[C@@]3(C)CC[C@H]4[C@H](C)CC[C@@H]1[C@@]24OO3 [artelinic acid]
[1]
  solubility in water compared with artemisinin: higher solubility in water

## CCO[C@H]1O[C@@H]2O[C@@]3(C)CC[C@H]4[C@H](C)CC[C@@H]([C@H]1C)[C@@]24OO3 [arteether]
[1]
  solubility in water compared with artemisinin: higher solubility in water
